Among the data in patent US9802927B2, “Oxadiazine compounds and methods of use thereof” (Denali Therapeutics, Inc., priority 2015, dated 2017) are EC50 values, retold here.

The test system of the first assay is Aβ42. The assay is described as follows: In vitro cell screening assay in H4 cells expressing human APP751: Aβ42 by sandwich ELISA. The assay is classed as cell-based. Particulars: Homo sapiens, compounds 0.003-10 μM, incubated overnight (16-18 h), sandwich ELISA of supernatant. The gist of the method: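 Secreted Aβ42 measured by sandwich ELISA, C-terminal-specific capture and 4G8-HRP detection, TMB read at 450 nm, from supernatants of APP751-expressing H4 cells exposed overnight (16-18 h) to 0.003-10 μM compound in Pro293 medium, 0.33% DMSO. Data scaled between DMSO and DAPT controls; EC50 from variable-slope nonlinear regression.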
In general terms: An ELISA detects its analyte on a solid surface through an enzyme-linked reagent.
Molecule `COc1nc(C2=NOCC(c3cn(C)c4cccc(Cl)c34)N2)ccc1-n1cnc(C)c1` (single isomer, unassigned; (+)) [Example 229A, (+)-5-(4-chloro-1-methyl-1H-indol-3-yl)-3-(6-methoxy-5-(4-methyl-1H-imidazol-1-yl)pyridin-2-yl)-5,6-dihydro-4H-1,2,4-oxadiazine] came in with an EC50 of 28.8 nM.

Still in this assay, the particulars now being: compounds 0.003-10 μM, incubated overnight (16-18 h), sandwich ELISA of supernatant.
Molecule `COc1nc(C2=NOCC(c3cc4ccccc4n3C)N2)ccc1-n1cnc(C)c1` (single isomer, unassigned; (+)) [Example 205B, (+)-3-(6-methoxy-5-(4-methyl-1H-imidazol-1-yl)pyridin-2-yl)-5-(1-methyl-1H-indol-2-yl)-5,6-dihydro-4H-1,2,4-oxadiazine] had an EC50 of 27 nM.

`COc1nc(C2=NOCC(c3cn(C)c4ncc(C(F)(F)F)cc34)N2)ccc1-n1cnc(C)c1` (single isomer, unassigned; (+)) [Example 206B, (+)-3-(6-methoxy-5-(4-methyl-1H-imidazol-1-yl)pyridin-2-yl)-5-(1-methyl-5-(trifluoromethyl)-1H-pyrrolo [2,3-b]pyridin-3-yl)-5,6-dihydro-4H-1,2,4-oxadiazine] displayed an EC50 of 5 nM. The molecule `COc1nc(C2=NOCC(c3nc4ccccc4s3)N2)ccc1-n1cnc(C)c1` (single isomer, unassigned; (+)) [Example 208B, (+)-5-(benzo [d]thiazol-2-yl)-3-(6-methoxy-5-(4-methyl-1H-imidazol-1-yl)pyridin-2-yl)-5,6-dihydro-4H-1,2,4-oxadiazine] yielded an EC50 of 74 nM.

With `COc1cc(C2=NOCC(c3nc4cccc(C)c4o3)N2C)ccc1-n1cnc(C)c1` (single isomer, unassigned; (+)) [Example 212A, (+)-2-(3-(3-methoxy-4-(4-methyl-1H-imidazol-1-yl)phenyl)-4-methyl-5,6-dihydro-4H-1,2,4-oxadiazin-5-yl)-7-methylbenzo[d]oxazole], the EC50 was 789 nM. This EC50 lies about 11-fold higher than the previous one. As to `COc1nc(C2=NOCC(c3cccc(S(C)(=O)=O)c3)N2)ccc1-n1cnc(C)c1` (single isomer, unassigned; (+)) [Example 214B, (+)-3-(6-methoxy-5-(4-methyl-1H-imidazol-1-yl)pyridin-2-yl)-5-(3-(methylsulfonyl)phenyl)-5,6-dihydro-4H-1,2,4-oxadiazine], a half-maximal effect (EC50) was put at 904 nM. Same read-out and setting: in the case of `COc1nc(C2=NOCC(c3ccc4sc(C)nc4c3)N2)ccc1-n1cnc(C)c1` (single isomer, unassigned; (+)) [Example 215B, (+)-3-(6-methoxy-5-(4-methyl-1H-imidazol-1-yl)pyridin-2-yl)-5-(2-methylbenzo[d]thiazol-5-yl)-5,6-dihydro-4H-1,2,4-oxadiazine] it was 52.7 nM. The same measure, in the same setting: in the case of `COc1nc(C2=NOCC(c3cn(C)c4cc(F)c(Cl)cc34)N2)ccc1-n1cnc(C)c1` (single isomer, unassigned; (+)) [Example 216B, (+)-5-(5-chloro-6-fluoro-1-methyl-1H-indol-3-yl)-3-(6-methoxy-5-(4-methyl-1H-imidazol-1-yl)pyridin-2-yl)-5,6-dihydro-4H-1,2,4-oxadiazine] it was 4.2 nM; in that of `COc1nc(C2=NOCC(c3ccc(S(C)(=O)=O)cc3)N2)ccc1-n1cnc(C)c1` (single isomer, unassigned; (+)) [Example 217B, (+)-3-(6-methoxy-5-(4-methyl-1H-imidazol-1-yl)pyridin-2-yl)-5-(4-(methylsulfonyl)phenyl)-5,6-dihydro-4H-1,2,4-oxadiazine], 2050 nM; in that of `COc1nc(C2=NOCC(c3ccc(C)c(Cl)c3)N2)ccc1-n1cnc(C)c1` (single isomer, unassigned; (+)) [Example 218B, (+)-5-(3-chloro-4-methylphenyl)-3-(6-methoxy-5-(4-methyl-1H-imidazol-1-yl)pyridin-2-yl)-5,6-dihydro-4H-1,2,4-oxadiazine], 14.1 nM.

Consider `COc1nc(C2=NOCC(c3cn(C(C)C)c4cc(F)ccc34)N2)ccc1-n1cnc(C)c1` (single isomer, unassigned; (+)) [Example 219A, (+)-5-(6-fluoro-1-isopropyl-1H-indol-3-yl)-3-(6-methoxy-5-(4-methyl-1H-imidazol-1-yl)pyridin-2-yl)-5,6-dihydro-4H-1,2,4-oxadiazine], for which the EC50 was found to be 9.2 nM. This EC50 is about 1.5-fold lower than that of the molecule before. The molecule `COc1nc(C2=NOCC(c3cn(C)c4ccc(F)c(F)c34)N2)ccc1-n1cnc(C)c1` (single isomer, unassigned; (+)) [Example 220B, (+)-5-(4,5-difluoro-1-methyl-1H-indol-3-yl)-3-(6-methoxy-5-(4-methyl-1H-imidazol-1-yl)pyridin-2-yl)-5,6-dihydro-4H-1,2,4-oxadiazine] showed an EC50 of 5.5 nM. Same read-out and setting: in the case of `COc1nc(C2=NOCC(c3cn(C)c4ccc(C5CC5)cc34)N2)ccc1-n1cnc(C)c1` (single isomer, unassigned; (+)) [Example 221B, (+)-5-(5-cyclopropyl-1-methyl-1H-indol-3-yl)-3-(6-methoxy-5-(4-methyl-1H-imidazol-1-yl)pyridin-2-yl)-5,6-dihydro-4H-1,2,4-oxadiazine] it was 2.9 nM. Same read-out and setting: in the case of `COc1nc(C2=NOCC(c3cn(C4CC4)c4cccc(F)c34)N2)ccc1-n1cnc(C)c1` (single isomer, unassigned; (+)) [Example 222A, (+)-5-(1-cyclopropyl-4-fluoro-1H-indol-3-yl)-3-(6-methoxy-5-(4-methyl-1H-imidazol-1-yl)pyridin-2-yl)-5,6-dihydro-4H-1,2,4-oxadiazine] it was 11.2 nM; in that of `COc1nc(C2=NOCC(c3cn(C)c4cc(F)c(F)cc34)N2)ccc1-n1cnc(C)c1` (single isomer, unassigned; (+)) [Example 223B, (+)-5-(5,6-difluoro-1-methyl-1H-indol-3-yl)-3-(6-methoxy-5-(4-methyl-1H-imidazol-1-yl)pyridin-2-yl)-5,6-dihydro-4H-1,2,4-oxadiazine], 6.2 nM. Still for that read-out and setting: in the case of `COc1nc(C2=NOCC(c3ccc4ncccc4c3)N2)ccc1-n1cnc(C)c1` (single isomer, unassigned; (+)) [Example 224B, (+)-3-(6-methoxy-5-(4-methyl-1H-imidazol-1-yl)pyridin-2-yl)-5-(quinolin-6-yl)-5,6-dihydro-4H-1,2,4-oxadiazine] it was 294 nM. For `COc1nc(C2=NOCC(c3ccc4c(c3)OC(F)(F)O4)N2)ccc1-n1cnc(C)c1` (single isomer, unassigned; (+)) [Example 225B], the response was half-maximal at 14 nM (EC50). Same read-out and setting: with `COc1nc(C2=NOCC(c3cn(C)c4cc(F)cc(F)c34)N2)ccc1-n1cnc(C)c1` (single isomer, unassigned; (+)) [Example 226A, (+)-5-(4,6-difluoro-1-methyl-1H-indol-3-yl)-3-(6-methoxy-5-(4-methyl-1H-imidazol-1-yl)pyridin-2-yl)-5,6-dihydro-4H-1,2,4-oxadiazine] the figure was 9.4 nM; with `COc1nc(C2=NOCC(c3ccc(C)cc3)N2)ccc1-n1cnc(C)c1` (single isomer, unassigned; (+)) [Example 227B, (+)-3-(6-methoxy-5-(4-methyl-1H-imidazol-1-yl)pyridin-2-yl)-5-(p-tolyl)-5,6-dihydro-4H-1,2,4-oxadiazine], 73.8 nM.

In turn, `COc1nc(C2=NOCC(c3cn(C4CC4)c4cc(F)ccc34)N2)ccc1-n1cnc(C)c1` (single isomer, unassigned; (+)) [Example 228B, (+)-5-(1-cyclopropyl-6-fluoro-1H-indol-3-yl)-3-(6-methoxy-5-(4-methyl-1H-imidazol-1-yl)pyridin-2-yl)-5,6-dihydro-4H-1,2,4-oxadiazine] registered an EC50 of 8.4 nM. This EC50 lies about 8.8-fold lower than the previous one. On to `COc1nc(C2=NOCC(c3cn(C)c4cccc(C(F)(F)F)c34)N2)ccc1-n1cnc(C)c1` (single isomer, unassigned; (+)) [Example 230A, (+)-3-(6-methoxy-5-(4-methyl-1H-imidazol-1-yl)pyridin-2-yl)-5-(1-methyl-4-(trifluoromethyl)-1H-indol-3-yl)-5,6-dihydro-4H-1,2,4-oxadiazine], for which the EC50 turned out to be 105 nM. Still for that read-out and setting: with `COc1nc(C2=NOCC(c3cn(C)c4c(F)cccc34)N2)ccc1-n1cnc(C)c1` (single isomer, unassigned; (+)) [Example 231B, (+)-5-(7-fluoro-1-methyl-1H-indol-3-yl)-3-(6-methoxy-5-(4-methyl-1H-imidazol-1-yl)pyridin-2-yl)-5,6-dihydro-4H-1,2,4-oxadiazine] the figure was 10.8 nM; with `COc1nc(C2=NOCC(c3nn(C)c4ccc(Cl)cc34)N2)ccc1-n1cnc(C)c1` (single isomer, unassigned; (+)) [Example 232B, (+)-5-(5-chloro-1-methyl-1H-indazol-3-yl)-3-(6-methoxy-5-(4-methyl-1H-imidazol-1-yl)pyridin-2-yl)-5,6-dihydro-4H-1,2,4-oxadiazine], 12.9 nM.

The molecule `COc1nc(C2=NOCC(c3cn(C)c4ccc(C(F)(F)F)cc34)N2)ccc1-n1cnc(C)c1` (single isomer, unassigned; (+)) [Example 233B, (+)-3-(6-methoxy-5-(4-methyl-1H-imidazol-1-yl)pyridin-2-yl)-5-(1-methyl-5-(trifluoromethyl)-1H-indol-3-yl)-5,6-dihydro-4H-1,2,4-oxadiazine] showed an EC50 of 1.7 nM. The same measure, in the same setting: in the case of `COc1nc(C2=NOCC(c3cc4cc(C5CC5)ccc4o3)N2)ccc1-n1cnc(C)c1` (single isomer, unassigned; (+)) [Example 234B, (+)-5-(5-cyclopropylbenzofuran-2-yl)-3-(6-methoxy-5-(4-methyl-1H-imidazol-1-yl)pyridin-2-yl)-5,6-dihydro-4H-1,2,4-oxadiazine] it was 9.5 nM; in that of `COc1nc(C2=NOCC(c3ccc(C(C)(C)C)cc3)N2)ccc1-n1cnc(C)c1` (single isomer, unassigned; (+)) [Example 235B, (+)-5-(4-(tert-butyl)phenyl)-3-(6-methoxy-5-(4-methyl-1H-imidazol-1-yl)pyridin-2-yl)-5,6-dihydro-4H-1,2,4-oxadiazine], 9.5 nM.

A word on the EC50: it is the concentration at which the effect is half-maximal. The low end stands for higher potency in that assay, the high end for lower potency in that assay.
